Numbered stars: 1 amine (or outer) side, 2 acyl side, 3 side chain; on linkers, the order of the positions; unused ones are H or OH. Ends that are not written are not given here. Ethylenediamine = C(CN[*:2])N[*:1]
Columns and labels:
smooth muscle cells [1] = assay: Penetration of carrier-conjugated peptides into smooth muscle cells; immunofluorescence of α-SM-actin polymerization; assay type: cell-based, Wistar rats; settings: c=0.5 mg, 1 mg and 2 mg per ml of cell culture solution
smooth muscle cells [2] = assay: as above; assay type: cell-based, Wistar rats; settings: 1 mg/ml in cell culture solution, 1 hour after treatment
Protocol: Smooth muscle cells are isolated by enzymatic cleavage from the thoracic aorta of 6-week-old Wistar rats. 10,000 cells are placed on 60 mm Petri dishes and allowed to grow for 5-6 h in DME and 10% foetal calf serum. The cells are incubated with the peptides for approximately 1 hour in the incubator, then washed twice with PBS (0.5 mmol CaCl2, 3 mmol MgCl2), then fixed with 3% parafornaldehyde for 10 min and permeabilized with 0.1% Triton X-100 in PBS for 1 minute, double-immunofluorescent stained for α-SM-actin and total actin with mouse anti-α-SM 1 and rabbit polyclonal anti-actin antibody, respectively, followed by staining with sheep anti-mouse IgG conjugated with tetramethylrhodamine B isothiocyanate or fluorescent isothiocyanate and sheep anti-rabbit IgG conjugated with fluorescent isothiocyanate, respectively. The preparations are washed with PBS and fixed in polyvinyl alcohol buffer. Photographs are taken with a Zeiss Axiophot light microscope using a fluorescein or rhodamine filter:
FIGS. 1-6 show the immunofluorescence photographs of the inhibition of polymerization 1 hour after treatment of the cell cultures with the substances, the concentration of the cell culture solution being 1 mg/ml.

HaCaT cells = assay: Penetration of carrier-conjugated peptides into keratinocytes; fluorescein-streptavidin staining, confocal microscopy; assay type: cell-based; settings: 4 hours incubation, 25 μM
Protocol: Approx. 5×10^5 HaCaT cells (a gift from Dr. N. E. Fusenig, Deutsches Krebsforschungszentrum Heidelberg) are inoculated into 60 mm culture dishes from a confluent culture (DMEM+5% FCS) and allowed to grow for about 12 hours. The cell cultures are incubated for 4 hours with 25 μM Ac-Leu-Gly-Asp[NH(CH2)5—NH—CO-biotin]-Lys(ε-D,L-6,8-dithiooctanamide)-NH—CH2—CH2—NH-octanoylamide and the cells are washed (2× with FCS-free DMEM) and fixed for 5 min at −20° C. with EtOH/acetic acid (95/5). They are washed three times with PBS and then bound to fluorescein-labelled streptavidin (1000×diluted in PBS+10% FCS). Prior to microscopy the cells were washed a further three times with PBS and dried. Photographs were taken with a confocal scanning laser microscope (Sarastro 2000, Molecular Dynamics) at an excitation wavelength of 488 nm using a 510 nm emission filter.

[3] = test system: Cloudman S91 melanoma cells; assay: Melanin formation in melanoma cells with and without α-MSH (indirect measure of TMP penetration); assay type: cell-based; settings: for OD450 nm (melanin content of lysate): 5 days
Protocol: Cloudman S91 melanoma cells (ATCC CCL-53.1) are cultivated to confluence in DMEM+10% FCS in 24-well culture dishes. The S91 cells (0.5 ml per culture) are incubated for 5 days with and without TMP and with 15 nM α-MSH and then harvested. The TMP/TMP-L is added at least 2 hours before the α-MSH. For determination of the melanin, the medium is discarded and the adhering cells are washed 1× with PBS. The cells are then lysed with 0.1 ml of 0.2 M NaOH and the melanin content of the lysate is measured at 450 nm. The cultures of the experimental series are made up in duplicate, the 2nd batch being used to determine the cell count by the MTT test (Mosmann T., J. of Immun. Methods 1983, 65, 55-63). The cell count indicates growth inhibiting effects and the melanin content is given relative to the cell count (OD450 nm/10^6 cells).

α-smooth muscle actin = settings: microinjected into cells; cited from earlier work
[4] = S91, 30 nM substance plus 15 nM α-MSH
[5] = S91, 30 nM substance, without α-MSH, untreated control about the same

Molecule | fluorescein staining (left picture) (smooth muscle cells [2]) | penetration of the peptide into the cell (smooth muscle cells [2]) | polymerization of the smooth α-actin filaments (smooth muscle cells [2]) | rhodamine staining of the smooth muscle α-actin polymers (right picture) (smooth muscle cells [2]) | also measured
Ac-Glu-Glu-Glu-Asp-Lys(ε-D,L-6,8-dithiooctanoylamide)-NH—CH2—CH2—NH—C═O—(CH2)6—CH3 (Ac-EEEDK(D,L‑6,8‑dithiooctanoyl)-{Ethylenediamine-octanoyl}) | slight | best penetration | very poorly developed | slight | dose-effect relationship (smooth muscle cells [1]): qualitative dose-effect relationship
Ac-Leu-Gly-Asp[NH(CH2)5—NH—CO-biotin]-Lys(ε-D,L-6,8-dithio-octanamide)-NH—CH2CH2—NH-octanoylamide [Batch d] | – | – | – | – | fluorescent staining of cells (HaCaT cells): attractive fluorescent staining
EDYHSLYNSHL [free TMP, reference compound] | – | – | – | – | OD450 nm (melanin content of lysate) [3, 4]: approximately 0.7; OD450 nm (melanin content of lysate) [3, 5]: approximately 0.2
Ac-Glu-Glu-Glu-Asp-NH2 (Ac-EEED-NH2) [reference compound] | strong | no penetration | completely developed | strong | polymerization of α-smooth muscle actin after microinjection in excess (α-smooth muscle actin): inhibits
Ac-Glu-Glu-Glu-Asp-Lys-NH—CH2—CH2—NH—C═O—(CH2)6—CH3 (Ac-EEEDK-{Ethylenediamine-octanoyl}) [reference compound] | strong | no penetration | completely developed | strong | –
Ac-Leu-Gly-Asp[NH(CH2)5—NH—CO-biotin]-OH [Ac-Leu-Gly-Asp-OH] | – | – | – | – | fluorescent staining of cells (HaCaT cells): no fluorescent staining
α-MSH: stimulant of melanin formation added to S91 cells at 15 nM (Ac-SYSMEHFRWGKPV-NH2; ends and bridges not checked; UniProt P01189 138-150, looked up) [reference compound] | – | – | – | – | OD450 nm (melanin content of lysate) ([3]; S91, 15 nM α-MSH alone): approximately 0.7
Ac-Glu-Glu-Glu-Asp-Lys(ε-D,L-6,8-dithiooctanoylamide)-NH2 (Ac-EEEDK(D,L‑6,8‑dithiooctanoyl)-NH2) | partial | penetration | partially developed | partial | –
Ac-Glu-Glu-Glu-Asp-Lys(E-D,L-6,8-dithiooctanoylamide)-NH—CH2—CH2—NH-hexadecanoylamide (Ac-EEEDK(D,L‑6,8‑dithiooctanoyl)-{Ethylenediamine-hexadecanoyl}) | slight | good penetration | very poorly developed | slight | –
CCCCCCCC(=O)NNCCNC(=O)C(N)CCCCNC(=O)CCCCC1CCSS1 [free transporter, H-Lys(ε-D,L-6,8-dithiooctanamide)-NH—CH2CH2—NH—NH-octanoylamide] | – | – | – | – | OD450 nm (melanin content of lysate) [3, 4]: approximately 0.7; OD450 nm (melanin content of lysate) [3, 5]: approximately 0.2
H-Glu-Asp-Tyr-His-Ser-Leu-Tyr-Asn-Ser-His-Leu-Lys(ε-D,L-6,8-dithiooctanamide)-NH—CH2CH2—NH-octanylamide (H-EDYHSLYNSHLK-{Ethylenediamine-octanoyl}; not fully specified (residue 12)) [transporter-bound TMP] | – | – | – | – | OD450 nm (melanin content of lysate) [3, 4]: approximately 0.2; OD450 nm (melanin content of lysate) [3, 5]: approximately 0.2; effect on melanin formation induced by α-MSH ([3]; S91 treated with α-MSH combined with transporter-bound TMP): prevention of melanin formation
Ac-Glu-Glu-Glu-Asp-Lys-NH—CH2—CH2—NH-hexadecanoylamide (Ac-EEEDK-{Ethylenediamine-hexadecanoyl}) [reference compound] | strong | no penetration | completely developed | strong | –
